We go through two compounds from BindingDB's records for doi:10.1016/j.bmcl.2012.07.086 (Shandong Academy of Sciences, 2012).

The experiment concerns the target T1, Aminopeptidase N (Sus scrofa, UniProt P15145).
T1 sequence (P15145 whole entry): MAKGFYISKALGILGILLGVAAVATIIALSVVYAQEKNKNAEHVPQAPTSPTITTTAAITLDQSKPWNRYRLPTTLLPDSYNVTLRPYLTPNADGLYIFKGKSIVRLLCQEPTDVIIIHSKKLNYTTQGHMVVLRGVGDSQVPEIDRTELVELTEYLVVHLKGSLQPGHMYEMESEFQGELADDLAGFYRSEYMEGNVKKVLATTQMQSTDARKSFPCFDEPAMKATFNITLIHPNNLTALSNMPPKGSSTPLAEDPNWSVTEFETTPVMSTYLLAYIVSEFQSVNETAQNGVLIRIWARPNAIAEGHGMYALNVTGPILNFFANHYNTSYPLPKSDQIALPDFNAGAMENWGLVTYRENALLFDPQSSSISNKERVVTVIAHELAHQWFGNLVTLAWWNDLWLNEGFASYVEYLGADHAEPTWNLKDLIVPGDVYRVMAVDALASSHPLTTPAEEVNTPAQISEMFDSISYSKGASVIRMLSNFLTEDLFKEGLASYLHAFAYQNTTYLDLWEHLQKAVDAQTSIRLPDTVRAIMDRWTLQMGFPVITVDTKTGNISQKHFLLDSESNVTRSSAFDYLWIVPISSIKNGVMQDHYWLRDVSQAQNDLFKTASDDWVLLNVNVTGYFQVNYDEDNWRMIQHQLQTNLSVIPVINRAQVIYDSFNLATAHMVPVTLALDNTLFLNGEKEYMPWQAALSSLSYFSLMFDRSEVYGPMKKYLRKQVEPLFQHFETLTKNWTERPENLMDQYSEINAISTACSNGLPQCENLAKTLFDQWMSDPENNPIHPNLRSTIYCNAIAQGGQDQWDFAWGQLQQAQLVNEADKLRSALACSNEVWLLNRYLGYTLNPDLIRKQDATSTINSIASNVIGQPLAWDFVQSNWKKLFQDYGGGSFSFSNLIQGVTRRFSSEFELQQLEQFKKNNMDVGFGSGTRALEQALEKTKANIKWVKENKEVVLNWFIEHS
Briefly: Inhibition of porcine kidney microsome aminopeptidase using L-Leu-p-nitroanilide as substrate after 30 mins.

In general, IC50 refers to the point on the concentration scale where inhibition reaches its midpoint. A higher IC50 goes with weaker potency. In turn, `O=C1NC(=O)C(N=Nc2cc([N+](=O)[O-])ccc2O)C(=O)N1` had an IC50 greater than 1000 µM.
In the case of `Cc1cc(C/N=N/c2ccc([N+](=O)[O-])cc2[N+](=O)[O-])c(C)n1-c1ccc(S(N)(=O)=O)cc1` it was greater than 1000 µM.
